# Patent US20250367209A1 (SOUTHERN RESEARCH INSTITUTE, priority 2022, published 2025)
# “Also recorded” adds a separate entry of the source.
# Columns and labels:
# [1] = Solubility; format: physicochemical; details: for ADME Sol (μM): Table 3
# [2] = Metabolic stability in mouse liver microsomes; format: in vitro ADME; details: mouse, liver microsomes
# [3] = Metabolic stability in human liver microsomes; format: in vitro ADME; details: Table 3, read-out: ADME t1/2 (min): HLMt1/2
# Text: (§1) A computational analysis of the top five hits was then completed to assess the physical attributes of the compounds emerging from the HTS. The target profile for drug-like properties included evaluation of molecular weight (MW), total polar surface area (PSA, the surface sum of all polar atoms on the molecule), solubility, metabolic stability, and partition coefficient (LogD). In general, MW<[…] and PSA <70 Å^2 were targeted, which generally allows for blood-brain barrier (BBB) permeability. Compounds with PSA >100 A^2 are generally poor at permeating cell membranes. Solubility was targeted at >10 μM at pH 7.4 and 40-60% of compound remaining after 60 minutes of incubation in mouse or human liver microsomes (an indicator of compound stability after first-pass metabolism). LogD is the log of the ratio of concentrations of a compound in two immiscible solvents at equilibrium. Values ranging from 2-4 were targeted, typical for CNS drugs. Based on these criteria, compound no. 55 was selected as the top hit for optimization. Compound no.
# [4] = Partition coefficient (LogD); format: physicochemical; details: Table 3; read-out: ADME LogD
# Text: as §1
# [5] = target: Tau-Fyn interaction (Homo sapiens (Human), UniProt P10636); assay: Tau-Fyn PLA screening in HEK-293 cells; format: cell-based; details: for PLA: Table 3, Tau-Fyn PLA; for Tau-Fyn interaction in cells, Tau-Fyn PLA in HEK-293 cells: compound 15 μM, 24 hours
# Chain of Tau-Fyn interaction (P10636 other isoform, or with tags, fused parts or gaps): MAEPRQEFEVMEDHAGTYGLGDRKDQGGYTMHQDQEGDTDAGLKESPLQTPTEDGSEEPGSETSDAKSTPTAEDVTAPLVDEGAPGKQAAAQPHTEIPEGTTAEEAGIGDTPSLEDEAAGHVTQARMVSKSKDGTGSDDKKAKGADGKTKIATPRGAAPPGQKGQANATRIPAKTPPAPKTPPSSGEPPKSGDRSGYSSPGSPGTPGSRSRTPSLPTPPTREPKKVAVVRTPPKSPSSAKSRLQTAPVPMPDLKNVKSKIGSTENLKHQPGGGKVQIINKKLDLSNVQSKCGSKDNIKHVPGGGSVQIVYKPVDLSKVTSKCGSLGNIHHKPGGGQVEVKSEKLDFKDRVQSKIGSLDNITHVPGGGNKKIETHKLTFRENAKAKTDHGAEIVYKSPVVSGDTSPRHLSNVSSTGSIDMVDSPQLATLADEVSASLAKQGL
# Method: Tau-Fyn PLA screening in HEK-293 cells: For Tau-Fyn PLA in HEK-293 cells, we used the same plasmids as before (Rush, et al. (2020) Neurobiol Dis 134, 104668): human 4R2N Tau with an N-terminal mKate2 tag in a pcDNA3.1 vector and human Fyn with an N-terminal Myc tag in a pCMV-Sport6 vector grown in Stellar E. coli. HEK-293 cells were plated on coverslips coated with PDL and laminin in a 24-well plate in DMEM supplemented with 10% FBS and 1% PenStrep. Cells were transfected with 125 ng of Tau-mKate2 and Fyn plasmids with 1.5 μL Fugene in plain DMEM. After 24 hours, compound was applied at 15 μM. Twenty-four hours after application, cells were fixed. PLA protocol was the same as above except for different primary antibodies (Tau5 1:500, Fyn3 1:250). After image acquisition, PLA density was calculated as PLA puncta (as above) divided by cell area to account for differences in confluency. Cell area was defined with ImageJ as % Area after theresholding Tau-mKate2 fluorescence because it filled the cells evenly. Puncta/cell area was then normalized to vehicle-treated slides from that experiment.
# [6] = Oral administration to mice, brain and plasma concentrations; format: in vivo; details: male CD1 mice; for presence in plasma and brain after oral administration: PO 5 mg/kg, 1, 2 and 4 hours; for brain/plasma ratio: PO 5 mg/kg
# Method: Compounds were sent to Pharmaron to determine if they were blood-brain barrier permeable. Compounds were formulated to 1 mg/mL in 10% NMP, 60% PEG400, 30% saline, then male CD1 mice were treated PO at 5 mg/kg. Brain and plasma concentrations were measured using HPLC-MS at 1 hour, 2 hours, and 4 hours post-treatment.
# [7] = system: primary rat neurons; assay: MAP2 ICC assay of Aβ-induced neurite degeneration; format: cell-based; details: compound 0.3, 3 or 15 μM, 90-minute pretreatment, 2.5 μM Aβ
# Text: Primary neuron cultures: All animal procedures were approved by the Institutional Animal Care and Use Committee at the University of Alabama at Birmingham (UAB). As before (Rush, et al. (2020) Neurobiol Dis 134, 104668; Voskobiynyk, et al. (2020) eLife 9, e57354), primary rat neurons were isolated from timed-pregnant Sprague-Dawley rats. Briefly, dams were euthanized with isoflurane anesthesia asphyxiation, and hippocampal tissue was isolated from E19 embryos in Hibernate E, then digested in papain for 10 minutes at 37° C. Neurons were triturated into a single cell suspension in Neurobasal supplemented with B-27, L-Glutamine, and 10% FBS, then plated in 96-well plates coated with PDL and laminin at 30,000 neurons per well in 200 uL medium or in 24-well coated plates with or without coverslips at 50,000 per well. Cultures were maintained at 37° C. with 5% CO2. Twenty-four hours after plating (DIV1), two 50% media changes with Neurobasal plus B-27 and L-Glutamine without FBS, and 5 μM cytosine β-D-arabinofuranoside was added to prevent glial proliferation. […]
# For the MAP2 ICC assay, neurons were fixed in 4% PFA and 4% sucrose at 37° C. for 30 minutes, then washed 3×5 minutes in PBS. […] Intact neurite length was measured in an unbiased, automated manner using Harmony software, averaged from four images from each well. […]
# [8] = target: 97 kinases; assay: Eurofins DiscoverX ScanEDGE kinase panel; format: biochemical; details: compound no. 69 at 3 μM; saracatinib stock 30 μM = 1000× testing concentration; activity = <35% of control
# Text: 69 and compound no. […] Since Fyn was not included in that panel, a custom panel was completed for Fyn kinase activity.
# [9] = Table 3, read-out: ADME t1/2 (min): MLMt1/2
Compound,ADME Sol (μM) [1],"Solubility ([1]; pH 7.4, aqueous buffer, Table 2)","half-life ([2]; Table 2, read-out: MLM t1/2)",half-life [3],logD [4],PLA [5],"half-life [2, 9]","Tau-Fyn interaction in cells, Tau-Fyn PLA in HEK-293 cells [5]",presence in plasma and brain after oral administration [6],brain/plasma ratio [6],"Aβ-induced neurite degeneration, MAP2 assay [7]","kinase inhibition, panel of 97 kinases [8]"
"O=C(CN1CCOc2ccccc21)Nc1nnc(-c2ccccn2)[nH]1 [compound 47, 2-(2,3-DIHYDRO-4H-BENZO[B][1,4]OXAZIN-4-YL)-N-(5-(PYRIDIN-2-YL)-4H-1,2,4-TRIAZOL-3-YL)ACETAMIDE]",Sol = 54 μM,80.2 µM,2 min,93 min,1.8,Active,–,–,–,–,–,–
"O=C(CN1C(=O)CSc2cc(F)ccc21)Nc1nnc(-c2ccccn2)[nH]1 [compound no. 12, 2-(7-FLUORO-3-oxo-2H-BENZO[B][1,4]THIAZIN-4(3H)-YL)-N-(5-(PYRIDIN-2-YL)-4H-1,2,4-TRIAZOL-3-YL)ACETAMIDE]",Sol = 41 μM,–,146 min,> 300 min,2.4,Active,146 min,reduced Tau-Fyn interaction in cells,"detected in plasma, it did not cross the BBB and was not present in brain",–,–,–
"O=C(CN1C(=O)CSc2cc(Cl)ccc21)Nc1nnc(-c2ccccn2)[nH]1 [compound no. 13, 2-(7-CHLORO-3-OXO-2H-BENZO[B][1,4]THIAZIN-4(3H)-YL)-N-(5-(PYRIDIN-2-YL)-4H-1,2,4-TRIAZOL-3-YL)ACETAMIDE]",–,–,–,> 120 min,3.1,Active,–,reduced Tau-Fyn interaction in cells,–,–,–,–
"O=C(CN1C(=O)CSc2cc(F)c(F)cc21)Nc1nnc(-c2ccccn2)[nH]1 [compound no. 14, 2-(6,7-DIFLUORO-3-OXO-2H-BENZO[B][1,4]THIAZIN-4(3H)-YL)-N-(5-(PYRIDIN-2-YL)-4H-1,2,4-TRIAZOL-3-YL)ACETAMIDE]",–,–,–,137 min,1.9,Inactive,–,did not reduce Tau-Fyn interaction in cells,–,–,–,–
"O=C(CN1CCSc2ccccc21)Nc1nnc(-c2ccccn2)[nH]1 [compound no. 20, 2-(2H-BENZO[B][1,4]THIAZIN-4(3H)-YL)-N-(5-(PYRIDIN-2-YL)-4H-1,2,4-TRIAZOL-3-YL)ACETAMIDE]",Sol = 14 μM,–,–,85 min,2.3,–,9 min,–,detected in both plasma and brain,0.06,–,–
"Cc1ccc2c(c1)SCC(=O)N2CC(=O)Nc1nnc(-c2ccccn2)[nH]1 [compound no. 23, 2-(7-METHYL-3-OXO-2H-BENZO[B][1,4]THIAZIN-4(3H)-YL)-N-(5-(PYRIDIN-2-YL)-4H-1,2,4-TRIAZOL-3-YL)ACETAMIDE]",Sol = 57 μM,–,–,133 min,2.2,Active,–,reduced Tau-Fyn interaction in cells,–,–,–,–
"O=C(CN1CCCc2ccccc21)Nc1nnc(-c2ccccn2)[nH]1 [compound no. 45, 2-(3,4-DIHYDROQUINOLIN-1(2H)-YL)-N-(5-(PYRIDIN-2-YL)-4H-1,2,4-TRIAZOL-3-YL)ACETAMIDE]",–,–,–,66 min,2.3,Active,–,reduced Tau-Fyn interaction in cells,–,–,–,–
O=C(CCN1C(=O)CSc2ccccc21)Nc1nnc(-c2ccccn2)[nH]1 [compound no. 55],–,–,–,–,–,–,–,reduced Tau-Fyn interaction in cells,–,–,prevented Aβ-induced neurite degeneration; also recorded: ameliorates Aβ-induced neurite degeneration,–
O=C(CN1CCOc2ccccc21)Nc1nnc(-c2ccccn2)[nH]1 [compound no. 69],–,–,–,–,–,–,–,reduced Tau-Fyn interaction in cells,presence in both plasma and brain,0.067,prevented; also recorded: ameliorates Aβ-induced neurite degeneration,did not inhibit Fyn or any of the 97 kinases; also recorded: is not a kinase inhibitor
